# Measurements: patent US20230405134A1, “NOVEL PROTAC CHIMERIC COMPOUND, AND PHARMACEUTICAL COMPOSITION COMPRISING SAME FOR PREVENTING, AMELIORATING, OR TREATING DISEASES THROUGH TARGET PROTEIN DEGRADATION” (POSTECH RESEARCH AND BUSINESS DEVELOPMENT FOUNDATION, priority 2020, published 2023)
# Where a SMILES comes first, the peptide text is derived from it. Bridges are numbered along the chain shown (N, C = ends). [ ]: non-standard residue; d: D form. Cha = N[C@@H](CC1CCCCC1)C(=O)O; S5 = C=CCCC[C@](C)(N)C(=O)O
# Legend:
# UBR box = target: T1, UBR box (Saccharomyces cerevisiae, UniProt P19812); test: Competitive fluorescence polarization (FP) assay against fluorescein-labeled RLAA peptide; format: binding, S. cerevisiae
# T1 construct: UBR box (residues 113-194) in the UBR1 E3 ubiquitin ligase of S. cerevisiae; made in house
# T1 sequence (P19812 113-194): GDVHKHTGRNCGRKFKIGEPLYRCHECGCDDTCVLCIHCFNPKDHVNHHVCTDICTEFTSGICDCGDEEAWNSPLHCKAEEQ
# Description: An expression plasmid of the PAS-B domain of human SRC-1 (residues 257-385) tagged with His6 was provided by Professor John. A. Robinson. (ChemBioChem 2008, 9, 1318-1322). The plasmid was transformed into BL21 (DE3) pLysS cells, and the protein was cultured in Luria-Bertani broth medium and induced with 0.5 mM IPTG at 18° C. for 16 hours. Cell disruption was performed by ultrasonic treatment in a buffer (50 mM Tris-HCl pH 8.0, 200 mM NaCl and 1 mM TCEP), and insoluble materials were removed by centrifugation. HisTrap™ column (GE Healthcare, 17-5255-01) chromatography was performed on the buffer and 500 mM of imidazole was applied for elution. In order to remove the His6-tag, TEV protease was used and the cleaved samples were loaded in HisTrap™ as described above. The SRC-1 was further purified by size exclusion chromatography (HiLoad™ 16/600 Superdex 75 pg) in a final buffer of 20 mM Tris-HCl pH 7.5, 150 mM NaCl and 1 mM TCEP. The expression and purification of the UBR box (residues 113-194) in the UBR1 E3 ubiquitin ligase of S. cerevisiae was performed in the previous manner. (Nat. Struct. Mol. Biol. 2010, 17, 1175-1181).
# A competitive fluorescence polarization (FP) assay was performed to evaluate the binding affinity of ND1-YL2 to the target protein. A fluorescently labeled 15-mer STAT-6 peptide (100 nM) was cultured with the PAS-B domain (5 μM) of SRC-1 in a binding buffer (50 mM HEPES, pH 7.4, 150 mM NaCl, and 0.01% Tween 20). After being placed in black Costar 384-well plates for 30 minutes, they were treated with various concentrations of YL2 and ND1-YL2. After further incubation for 1 hour, the polarization of fluorescence was measured by a Tecan F200 microplate reader (excitation wavelength: 485 nm; emission wavelength: 535 nm). IC50 values were determined using non-linear regression and fitted with GraphPad Prism® 4 software using the following equation: Y=Bottom+(Top-Bottom)/(1+10^X-LogIC50) (FIG. 11A). […] The binding affinity was calculated as described above (FIG. 11B).
# CSF-1 = CSF-1 mRNA level by RT-qPCR in MDA-MB-231 cells; format: cell-based, human; conditions: 12 hours
# Excerpt: The pharmacological effects on SRC-1 dependent signal transmission were explored using the previously discovered SRC-1 degrading substance. The SRC-1 is overexpressed in various cancers and plays a pivotal role in increasing cell migration and invasion by regulating the expression of related genes. Therefore, when treated with ND1-YL2, an SRC-1 degrading substance, the expression of genes stimulated by SRC-1, such as colony stimulating factor-1 (CSF-1), a gene encoding the cytokine CSF-1 that induces cell differentiation and migration, will be suppressed. To confirm this, MDA-MB-231 cells were treated with DMSO and various concentrations of ND1-YL2, YL2 or N-degron tetrapeptide for 12 hours, and the mRNA level of CSF-1 was normalized to 18S level. Confirmation was made using quantitative real-time polymerase chain reaction (RT-qPCR). MDA-MB-231 cells were seeded at 2×10^5 cells per well. After 24 hours, compounds (YL2, RLAA or ND1-YL2) were treated in Opti-MEM medium for 12 hours. Subsequently, general mRNA isolation was performed using TRI reagent (Takara), and total mRNA was isolated from the cells. The absorbance of total mRNA was measured with a Tecan F200 Nanophotometer, and reverse transcription was performed using AccuPower RocketScript Cycle RT PreMix (Bioneer). Quantitative real-time PCR for CSF-1, E-Cadherin and 18S was performed using a StepOnePlus Real-Time PCR System and SYBR Green mix (Applied Biosystems) according to the manufacturer's manual.
structure (smiles),measurement,setting,value
CC(C)C[C@H](NC(=O)[C@H](C)NC(=O)[C@H](C)NC(=O)[C@H](C)NC(=O)[C@H](C)NC(=O)[C@H](CC(C)C)NC(=O)[C@@H](N)CCCNC(=N)N)C(=O)N[C@@H](CC(C)C)C(=O)N1CCC[C@H]1C(=O)N1CCC[C@H]1C(=O)N[C@H](C(=O)N[C@@H](CCC(=O)O)C(=O)N[C@@H](CCC(N)=O)C(=O)N[C@@H](CC(=O)O)C(=O)N[C@@H](CC(C)C)C(=O)N[C@@]1(C)CCC/C=C\CCC[C@@](C)(C(=O)N[C@@H](Cc2ccc(O)cc2)C(N)=O)NC(=O)[C@H](CC2CCCCC2)NC(=O)[C@H](CC(C)C)NC(=O)[C@H](CCCCN)NC1=O)[C@@H](C)O [ND1-YL2] (H-RLAAAALLPPTEQDL[S5]KL[Cha][S5]Y-NH2; staple (Z) 16-20),Improved affinity for the UBR box compared to the RLAA tetrapeptide,UBR box,approximately 3 fold
same,Ki,UBR box,1480 nM
same,Difference in binding affinity for target E3 ligase compared to CL1-YL2,UBR box; ND1-YL2 binds less strongly to its E3 ligase than CL1-YL2,~10 fold
same,Effect on CSF-1 expression (mRNA normalized to 18S),CSF-1,downregulated CSF-1 expression
